Consider 8 compounds from PubChem BioAssay (NCI).

Test systems include IGROV1 ovarian; CAKI-1 renal; OVCAR-8 ovarian; KM12 colon; K-562 leukemia; NCI-H460 lung; HCT-116 colon; MDA-N; HS 578T breast; A549 NSCLC; MCF7 breast; SF-539 CNS; MDA-MB-435.
Common to all, as to assay: DTP human tumour cell line panel, 48 h

Molecules are shown by their SMILES.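 Growth conditions: 96-well plates. Treatment: test compound, 48 hours, 5 concentrations. Analysis: linear interpolation between bracketing concentrations; unreached endpoints set to highest concentration. TGI is the concentration that stops growth completely.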

The TGI is the concentration giving total growth inhibition. For `O=c1[nH]nc(Cc2ccccc2)n1/N=C/c1ccc([N+](=O)[O-])cc1`, the TGI in the test with IGROV1 ovarian, in the test on CAKI-1 renal, in the test on OVCAR-8 ovarian, with KM12 colon, in the test on K-562 leukemia and in the test on NCI-H460 lung was above 100 µM in each case. Moreover, the TGI with HCT-116 colon, with MDA-N, in the test on HS 578T breast, with A549 NSCLC, in the test with MCF7 breast and in the test on SF-539 CNS was above 100 µM throughout. Besides, in the test on MDA-MB-435, the concentration for total growth inhibition (TGI) is above 100 µM.
Regarding `COc1ccc(-c2nc3c(C(=O)NCCN(C)C)cccc3c3ccccc23)cc1`, the total growth inhibition concentration (TGI) with IGROV1 ovarian was 14.6 µM; with CAKI-1 renal, 7.05 µM; with OVCAR-8 ovarian, 20.6 µM; with KM12 colon it was 14.9 µM; in the test on K-562 leukemia, 4.68 µM; in the test with NCI-H460 lung, 10.9 µM. For the same compound, the TGI with HCT-116 colon came to 11.6 µM; with MDA-N it was 5.45 µM; in the test on HS 578T breast, 28.9 µM; in the test on A549 NSCLC, 12.6 µM; in the test on MCF7 breast it was 8.65 µM; in the test with SF-539 CNS it was 4.87 µM. In addition, the TGI with MDA-MB-435 is 5.16 µM.
Turning to `CC(=O)NC1COC(COC(=O)CCCCCCCCCCNC(=O)c2ccc([N+](=O)[O-])c3c(=O)c4ccccc4[nH]c23)C(O)C1OC(C)C(=O)NC(C(=O)NC(CCC(N)=O)C(=O)OCc1ccccc1)C(C)C` (centres undefined), the total growth inhibition concentration (TGI) is 18.3 µM in the test on IGROV1 ovarian; 23.4 µM in the test on CAKI-1 renal; 44.1 µM in the test on OVCAR-8 ovarian; 11.6 µM in the test with KM12 colon; 54.2 µM with K-562 leukemia; 39.7 µM in the test with NCI-H460 lung. In addition, the total growth inhibition concentration (TGI) in the test with HCT-116 colon is 42.7 µM; in the test with MDA-N, 75 µM; in the test with HS 578T breast, 17.6 µM; with A549 NSCLC it was 71.9 µM; with MCF7 breast, 14.8 µM; in the test on SF-539 CNS, 58.3 µM. In addition, in the test with MDA-MB-435, the TGI is above 100 µM.
`O=C(Nc1cccc(C(=O)NCCCO)c1)/C(=C/c1ccccc1)NC(=O)c1ccccc1`: the TGI in the test on IGROV1 ovarian, in the test with CAKI-1 renal, in the test on OVCAR-8 ovarian, in the test on KM12 colon, with K-562 leukemia and in the test on NCI-H460 lung was above 100 µM each time. The TGI in the test with HCT-116 colon, in the test on MDA-N, with HS 578T breast, with A549 NSCLC, in the test on MCF7 breast and with SF-539 CNS was above 100 µM in each case. Besides, in the test with MDA-MB-435, the concentration for total growth inhibition (TGI) is above 100 µM.
As for `CCOC(=O)c1sc2nc1CSc1sc(=S)sc1SCc1nc(sc1C(=O)OCC)-c1nc(c(C(=O)OCC)s1)CSc1sc(=S)sc1SCc1nc-2sc1C(=O)OCC`, the concentration for total growth inhibition (TGI) in the test with IGROV1 ovarian, in the test with CAKI-1 renal, with OVCAR-8 ovarian, with KM12 colon, with K-562 leukemia and in the test with NCI-H460 lung was above 10 µM throughout. Besides, the TGI in the test on HCT-116 colon, with MDA-N, with HS 578T breast, in the test on A549 NSCLC, with MCF7 breast and in the test with SF-539 CNS was above 10 µM throughout. The compound further gave a TGI in the test on MDA-MB-435 above 10 µM.
Turning to `CN(C)c1ccc(/C=C(\NC(=O)c2ccccc2)C(=O)Nc2cccc(C(=O)NCCCO)c2)cc1`, the TGI with IGROV1 ovarian, in the test with CAKI-1 renal, in the test with OVCAR-8 ovarian, in the test on KM12 colon, with K-562 leukemia and with NCI-H460 lung was above 100 µM each time. For the same compound, the TGI with HCT-116 colon, in the test with MDA-N, in the test with HS 578T breast, in the test on A549 NSCLC, with MCF7 breast and with SF-539 CNS was above 100 µM each time. For the same compound, the TGI in the test with MDA-MB-435 was above 100 µM.
Take `O=CN1CCC23CC(O)CCC2C1Cc1cc(Oc2nnnn2-c2ccccc2)cc(O)c13` (centres undefined): the TGI with IGROV1 ovarian, in the test on CAKI-1 renal, in the test on OVCAR-8 ovarian, in the test on KM12 colon, in the test on K-562 leukemia and in the test on NCI-H460 lung was above 100 µM throughout. The concentration for total growth inhibition (TGI) with HCT-116 colon, in the test on MDA-N, in the test with HS 578T breast, in the test with A549 NSCLC, with MCF7 breast and with SF-539 CNS was above 100 µM each time. Moreover, the total growth inhibition concentration (TGI) with MDA-MB-435 was above 100 µM.
As to `O=C1/C(=C/c2ccc(O)c(O)c2)CC/C1=C\c1ccc(O)c(O)c1`, the TGI with IGROV1 ovarian is above 58.5 µM; in the test with CAKI-1 renal, above 57.7 µM; in the test on OVCAR-8 ovarian, above 87.2 µM; in the test with KM12 colon it was above 100 µM; with K-562 leukemia, 27.7 µM; with NCI-H460 lung it was above 100 µM. Further, the TGI in the test with HCT-116 colon is above 47.8 µM; with MDA-N, above 100 µM; with HS 578T breast, above 100 µM; in the test on A549 NSCLC, above 79.9 µM; in the test with MCF7 breast, 22.3 µM; in the test on SF-539 CNS, 9.64 µM. In the test with MDA-MB-435, this compound had a concentration for total growth inhibition (TGI) above 100 µM.
